Experimental data published in ChEMBL document CHEMBL1128559, “Inhibition of the oncogene product p185erbB-2 in vitro and in vivo by geldanamycin and dihydrogeldanamycin derivatives” (J Med Chem, 1995).

Legend:
SK-BR-3 [1] = test: Inhibition of oncogene product p185 erbB-2 from human breast cancer cells(SK-BR-3 cells) at 50 mg/kg dose.; type: functional
Mus musculus [2] = test: In vivo inhibition of phospho-p185erbB-2 expression in human SK-BR-3 tumors at 50 mg/kg ip dose in mice; type: functional; conditions: SK-BR-3, ip, route intraperitoneal
SK-BR-3 [3] = test: Inhibition of oncogene product p185 erbB-2 from human breast cancer cells(SK-BR-3 cells).
Mus musculus [4] = organism: Mus musculus; conditions: 400 mg/kg
Description: In vivo inhibition of phospho-p185erbB-2 expression in human SK-BR-3 tumors at 400 mg/kg dose in mice (lethal)

Mus musculus [5] = test: In vivo inhibition of phospho-p185erbB-2 expression in FRE/erbB-2 tumors at 200 mg/kg dose ip in mice; conditions: FRE/erbB-2, ip
Mus musculus [6] = test: In vivo inhibition of phospho-p185erbB-2 expression in human SK-BR-3 tumors at 100 mg/kg ip dose in mice; type: functional; conditions: SK-BR-3, ip, route intraperitoneal
Mus musculus [7] = test: In vivo inhibition of phospho-p185erbB-2 expression in FRE/erbB-2 tumors in nu/nu mice at 100 mg/kg dose.
Mus musculus [8] = test: In vivo inhibition of phospho-p185erbB-2 expression in FRE/erbB-2 tumors in nu/nu mice at 200 mg/kg dose.
SK-BR-3 [9] = test: […] inhibition of phospho-p185erbB-2 expression in human breast cancer cells(SK-BR-3 cells) at 200 mg/kg dose.; type: functional
Mus musculus [10] = test: In vivo inhibition of phospho-p185erbB-2 expression in FRE/erbB-2 tumors at 400 mg/kg ip dose in mice; conditions: FRE/erbB-2, ip
SK-BR-3 [11] = test: In vitro inhibition of phospho-p185erbB-2 expression in human breast cancer cells(SK-BR-3 cells) at 50 mg/kg dose; type: functional; design: dose 50 mg/kg
Mus musculus [12] = test: In vivo inhibition of phospho-p185erbB-2 expression in human SK-BR-3 tumors at 100 mg/kg dose in mice; type: functional
Mus musculus [13] = test: In vivo inhibition of phospho-p185erbB-2 expression in FRE/erbB-2 tumors at 400 mg/kg dose in mice
Mus musculus [14] = test: In vivo inhibition of phospho-p185erbB-2 expression in FRE/erbB-2 tumors at 50 mg/kg dose in mice
Mus musculus [15] = test: In vivo inhibition of phospho-p185erbB-2 expression in FRE/erbB-2 tumors at 200 mg/kg dose in mice

| SMILES | IC50 (SK-BR-3 [3]) | inhibition in vivo at 100 mg/kg (Mus musculus [7]) | inhibition in vivo at 200 mg/kg (Mus musculus [8]) | other results |
| --- | --- | --- | --- | --- |
| CCN(CC)C1=NC2=C3C[C@@H](C)C[C@H](OC)[C@H](O)[C@@H](C)/C=C(\C)[C@H](OC(N)=O)[C@@H](OC)/C=C\C=C(/C)C(=O)NC(=CC2=N1)C3=O |  |  |  | IC50 (SK-BR-3 [1]): 210 nM |
| CO[C@H]1/C=C\C=C(/C)C(=O)NC2=CC3=NC(N(C)Cc4ccccc4)=NC3=C(C[C@@H](C)C[C@H](OC)[C@H](O)[C@@H](C)/C=C(\C)[C@@H]1OC(N)=O)C2=O |  |  |  | IC50 (SK-BR-3 [1]): 300 nM |
| CO[C@H]1C[C@H](C)CC2=C(NC3CC3)C(=O)C=C(NC(=O)/C(C)=C/CC[C@H](OC)[C@@H](OC(N)=O)/C(C)=C/[C@H](C)[C@H]1O)C2=O | 46 nM | 31% |  |  |
| CO[C@H]1/C=C\C=C(/C)C(=O)NC2=CC3=NC(N(C)C)=NC3=C(C[C@@H](C)C[C@H](OC)[C@H](O)[C@@H](C)/C=C(\C)[C@@H]1OC(N)=O)C2=O |  |  |  | IC50 (SK-BR-3 [1]): 50 nM |
| CO[C@H]1C[C@H](C)CC2=C(N3CCC3)C(=O)C=C(NC(=O)/C(C)=C/CC[C@H](OC)[C@@H](OC(N)=O)/C(C)=C/[C@H](C)[C@H]1O)C2=O | 14 nM | 38% | 27% |  |
| CO[C@H]1C[C@H](C)CC2=C(NCCO)C(=O)C=C(NC(=O)/C(C)=C/CC[C@H](OC)[C@@H](OC(N)=O)/C(C)=C/[C@H](C)[C@H]1O)C2=O | 34 nM |  | 55% |  |
| CO[C@H]1C[C@H](C)CC2=C(NCCF)C(=O)C=C(NC(=O)/C(C)=C/CC[C@H](OC)[C@@H](OC(N)=O)/C(C)=C/[C@H](C)[C@H]1O)C2=O | 27 nM |  | 53% |  |
| CO[C@H]1/C=C\C=C(/C)C(=O)NC2=CC(=O)C(N)=C(C[C@@H](C)C[C@H](OC)[C@H](O)[C@@H](C)/C=C(\C)[C@@H]1OC(N)=O)C2=O | 37 nM |  | 47% |  |
| CO[C@H]1/C=C\C=C(/C)C(=O)NC2=CC(=O)C(NCCC#N)=C(C[C@@H](C)C[C@H](OC)[C@H](O)[C@@H](C)/C=C(\C)[C@@H]1OC(N)=O)C2=O |  |  |  | inhibition in vivo at 200 mg/kg (SK-BR-3 [9]): 61%; IC50 (SK-BR-3 [1]): 17 nM |
| CO[C@H]1C[C@H](C)CC2=C(NCCC#N)C(=O)C=C(NC(=O)/C(C)=C/CC[C@H](OC)[C@@H](OC(N)=O)/C(C)=C/[C@H](C)[C@H]1O)C2=O |  |  |  | IC50 (SK-BR-3 [1]): 30 nM |
| CO[C@H]1/C=C\C=C(/C)C(=O)NC2=CC(=O)C(NCCF)=C(C[C@@H](C)C[C@H](OC)[C@H](O)[C@@H](C)/C=C(\C)[C@@H]1OC(N)=O)C2=O | 12 nM | 50% | 68% |  |
| COCCNC1=C2C[C@@H](C)C[C@H](OC)[C@H](O)[C@@H](C)/C=C(\C)[C@H](OC(N)=O)[C@@H](OC)CC/C=C(\C)C(=O)NC(=CC1=O)C2=O | 33 nM | 42% | 69% |  |
| CO[C@H]1C[C@H](C)CC2=C(NCC(C)O)C(=O)C=C(NC(=O)/C(C)=C/CC[C@H](OC)[C@@H](OC(N)=O)/C(C)=C/[C@H](C)[C@H]1O)C2=O (some centres not stated) | 83 nM |  | 32% |  |
| CO[C@H]1C[C@H](C)CC2=C(N3CC(O)C3)C(=O)C=C(NC(=O)/C(C)=C/CC[C@H](OC)[C@@H](OC(N)=O)/C(C)=C/[C@H](C)[C@H]1O)C2=O | 50 nM | 29% | 44% |  |
| CO[C@H]1/C=C\C=C(/C)C(=O)NC2=CC(=O)C=C(C[C@@H](C)C[C@H](OC)[C@H](O)[C@@H](C)/C=C(\C)[C@@H]1OC(N)=O)C2=O |  |  |  | inhibition in vivo at 50 mg/kg (Mus musculus [2]): 29%; inhibition in vivo at 400 mg/kg (Mus musculus [10]): 57%; inhibition in vivo at 100 mg/kg (Mus musculus [6]): 34%; IC50 (SK-BR-3 [11]): 300 nM |
| CO[C@H]1/C=C\C=C(/C)C(=O)NC2=CC(=O)C(N3CCC3)=C(C[C@@H](C)C[C@H](OC)[C@H](O)[C@@H](C)/C=C(\C)[C@@H]1OC(N)=O)C2=O | 23 nM | 61% | 68% |  |
| CO[C@H]1C[C@H](C)CC2=C3N=C(N(C)C)N=C3C=C(NC(=O)/C(C)=C/CC[C@H](OC)[C@@H](OC(N)=O)/C(C)=C/[C@H](C)[C@H]1O)C2=O |  |  |  | IC50 (SK-BR-3 [1]): 50 nM |
| CO[C@H]1/C=C\C=C(/C)C(=O)NC2=CC(=O)C(O)=C(C[C@@H](C)C[C@H](OC)[C@H](O)[C@@H](C)/C=C(\C)[C@@H]1OC(N)=O)C2=O | > 3700 nM |  |  |  |
| COC1=C2C[C@@H](C)C[C@H](OC)[C@H](O)[C@@H](C)/C=C(\C)[C@H](OC(N)=O)[C@@H](OC)/C=C\C=C(/C)C(=O)N3CN(C(C)(C)C)CC(=C3C2=O)C1=O | > 3040 nM |  |  |  |

More lines, main results first:

| IC50 (SK-BR-3 [3]) | SMILES | inhibition in vivo at 100 mg/kg (Mus musculus [7]) | inhibition in vivo at 200 mg/kg (Mus musculus [8]) | other results |
| --- | --- | --- | --- | --- |
| 70 nM | COC1=C2C[C@@H](C)C[C@H](OC)[C@H](O)[C@@H](C)/C=C(\C)[C@H](OC(N)=O)[C@@H](OC)/C=C\C=C(/C)C(=O)NC(=CC1=O)C2=O [GELDANAMYCIN] |  |  | inhibition in vivo at 50 mg/kg (Mus musculus [2]): 30%; inhibition (Mus musculus [4]): Lethal; inhibition in vivo at 200 mg/kg (Mus musculus [5]): 25%; inhibition in vivo at 100 mg/kg (Mus musculus [6]): 6% |
| 60 nM | CO[C@H]1/C=C\C=C(/C)C(=O)NC2=CC(=O)C(NC(C)C)=C(C[C@@H](C)C[C@H](OC)[C@H](O)[C@@H](C)/C=C(\C)[C@@H]1OC(N)=O)C2=O |  | 87% |  |
| 12 nM | CNC1=C2C[C@@H](C)C[C@H](OC)[C@H](O)[C@@H](C)/C=C(\C)[C@H](OC(N)=O)[C@@H](OC)CC/C=C(\C)C(=O)NC(=CC1=O)C2=O |  | 37% |  |
| 40 nM | CO[C@H]1C[C@H](C)CC2=C(N)C(=O)C=C(NC(=O)/C(C)=C/CC[C@H](OC)[C@@H](OC(N)=O)/C(C)=C/[C@H](C)[C@H]1O)C2=O | 45% | 44% |  |
| 99 nM | CO[C@H]1/C=C\C=C(/C)C(=O)NC2=CC(=O)C(NC[C@H](C)O)=C(C[C@@H](C)C[C@H](OC)[C@H](O)[C@@H](C)/C=C(\C)[C@@H]1OC(N)=O)C2=O | 65% | 70% |  |
| 2030 nM | CO[C@H]1/C=C\C=C(/C)C(=O)NC2=CC3=NC(/N=C(\N)N4CCOCC4)=NC3=C(C[C@@H](C)C[C@H](OC)[C@H](O)[C@@H](C)/C=C(\C)[C@@H]1OC(N)=O)C2=O |  |  |  |
| > 3100 nM | CO[C@H]1/C=C\C=C(/C)C(=O)NC2=CC(=O)C(NCC3CCNCC3)=C(C[C@@H](C)C[C@H](OC)[C@H](O)[C@@H](C)/C=C(\C)[C@@H]1OC(N)=O)C2=O |  |  |  |
| 31 nM | C=CCNC1=C2C[C@@H](C)C[C@H](OC)[C@H](O)[C@@H](C)/C=C(\C)[C@H](OC(N)=O)[C@@H](OC)/C=C\C=C(/C)C(=O)NC(=CC1=O)C2=O [TANESPIMYCIN] | 55% | 68% | inhibition in vivo at 100 mg/kg (Mus musculus [12]): 60%; inhibition in vivo at 400 mg/kg (Mus musculus [13]): 72%; inhibition in vivo at 50 mg/kg (Mus musculus [14]): 27%; inhibition in vivo at 200 mg/kg (Mus musculus [15]): 80% |
